Measurements published in PubChem BioAssay (NCI).
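All cell lines were grown in 96-well plates and treated with compound for 48 hours. GI50 marks 50% less growth. The concentration for full growth arrest is given as TGI.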

Columns and labels:
Assay in all cases: NCI-60 cell line screen, 48 h
786-0 renal = test system: 786-0 renal
A498 renal = test system: A498 renal
A549 NSCLC = test system: A549 NSCLC
ACHN renal = test system: ACHN renal
BT-549 breast = test system: BT-549 breast
CAKI-1 renal = test system: CAKI-1 renal
CCRF-CEM leukemia = test system: CCRF-CEM leukemia
COLO 205 colon = test system: COLO 205 colon
DU-145 prostate = test system: DU-145 prostate
EKVX NSCLC = test system: EKVX NSCLC
HCC-2998 colon = test system: HCC-2998 colon
HCT-116 colon = test system: HCT-116 colon
HCT-15 colon = test system: HCT-15 colon
HL-60(TB) leukemia = test system: HL-60(TB) leukemia
HOP-62 NSCLC = test system: HOP-62 NSCLC
HOP-92 NSCLC = test system: HOP-92 NSCLC
HS 578T breast = test system: HS 578T breast
HT29 colon = test system: HT29 colon
IGROV1 ovarian = test system: IGROV1 ovarian
K-562 leukemia = test system: K-562 leukemia
KM12 colon = test system: KM12 colon
LOX IMVI melanoma = test system: LOX IMVI melanoma
M14 melanoma = test system: M14 melanoma
MALME-3M melanoma = test system: MALME-3M melanoma
MCF7 breast = test system: MCF7 breast
MDA-MB-231 breast = test system: MDA-MB-231 breast
MDA-MB-435 = test system: MDA-MB-435
MDA-MB-468 breast = test system: MDA-MB-468 breast
MOLT-4 leukemia = test system: MOLT-4 leukemia
NCI-H226 lung = test system: NCI-H226 lung
NCI-H23 lung = test system: NCI-H23 lung
NCI-H460 lung = test system: NCI-H460 lung
NCI-H522 lung = test system: NCI-H522 lung
NCI/ADR-RES ovarian = test system: NCI/ADR-RES ovarian
OVCAR-3 ovarian = test system: OVCAR-3 ovarian
OVCAR-4 ovarian = test system: OVCAR-4 ovarian
OVCAR-5 ovarian = test system: OVCAR-5 ovarian
OVCAR-8 ovarian = test system: OVCAR-8 ovarian
PC-3 prostate = test system: PC-3 prostate
RPMI-8226 leukemia = test system: RPMI-8226 leukemia
RXF 393 renal = test system: RXF 393 renal
SF-268 CNS = test system: SF-268 CNS
SF-295 CNS = test system: SF-295 CNS
SF-539 CNS = test system: SF-539 CNS
SK-MEL-2 melanoma = test system: SK-MEL-2 melanoma
SK-MEL-28 melanoma = test system: SK-MEL-28 melanoma
SK-MEL-5 melanoma = test system: SK-MEL-5 melanoma
SK-OV-3 ovarian = test system: SK-OV-3 ovarian
SN12C renal = test system: SN12C renal
SNB-19 CNS = test system: SNB-19 CNS
SNB-75 CNS = test system: SNB-75 CNS
SR leukemia = test system: SR leukemia
SW-620 colon = test system: SW-620 colon
T-47D breast = test system: T-47D breast
TK-10 renal = test system: TK-10 renal
U251 CNS = test system: U251 CNS
UACC-257 melanoma = test system: UACC-257 melanoma
UACC-62 melanoma = test system: UACC-62 melanoma
UO-31 renal = test system: UO-31 renal

## COc1ccc2[nH]c(O)c(N=NC(=O)COc3ccc(NC(=O)Nc4ccccc4)cc3)c2c1
786-0 renal
  GI50: 13.6 µM
  TGI: 30.6 µM
A498 renal
  GI50: 18.3 µM
  TGI: 38.4 µM
A549 NSCLC
  GI50: 21.9 µM
  TGI: 58.4 µM
ACHN renal
  GI50: 39.5 µM
  TGI: > 100 µM
BT-549 breast
  TGI: 20.2 µM
CAKI-1 renal
  GI50: 24.3 µM
  TGI: 70.1 µM
CCRF-CEM leukemia
  GI50: 33.1 µM
  TGI: > 100 µM
COLO 205 colon
  GI50: 16.5 µM
  TGI: 33.5 µM
DU-145 prostate
  GI50: 30.9 µM
  TGI: > 100 µM
EKVX NSCLC
  GI50: 35.3 µM
  TGI: > 100 µM
HCC-2998 colon
  GI50: 17.5 µM
  TGI: 42.8 µM
HCT-116 colon
  GI50: 2910 nM
  TGI: 27.5 µM
HCT-15 colon
  GI50: > 100 µM
  TGI: > 100 µM
HL-60(TB) leukemia
  GI50: 29.6 µM
  TGI: > 100 µM
HOP-62 NSCLC
  GI50: 18.5 µM
  TGI: 34.6 µM
HOP-92 NSCLC
  GI50: 7.82 µM
  TGI: 25.4 µM
HS 578T breast
  GI50: 17.3 µM
  TGI: 75.6 µM
HT29 colon
  GI50: 26 µM
  TGI: > 100 µM
IGROV1 ovarian
  GI50: 22.5 µM
  TGI: 59.2 µM
K-562 leukemia
  GI50: 26.7 µM
  TGI: > 100 µM
KM12 colon
  GI50: 684 nM
  TGI: 21 µM
LOX IMVI melanoma
  GI50: 17 µM
  TGI: 36.8 µM
M14 melanoma
  GI50: 2900 nM
  TGI: 21.1 µM
MALME-3M melanoma
  GI50: 14.4 µM
  TGI: 28.4 µM
MCF7 breast
  GI50: 17.4 µM
  TGI: 40.2 µM
MDA-MB-231 breast
  GI50: 14.3 µM
  TGI: 28.6 µM
MDA-MB-435
  GI50: 16.3 µM
  TGI: 35.4 µM
MDA-MB-468 breast
  GI50: 11.1 µM
  TGI: 26.2 µM
MOLT-4 leukemia
  GI50: 23.7 µM
  TGI: > 100 µM
NCI-H226 lung
  GI50: 15 µM
  TGI: 34.7 µM
NCI-H23 lung
  GI50: 15.8 µM
  TGI: 32.7 µM
NCI-H460 lung
  GI50: 15.7 µM
  TGI: 41.2 µM
NCI-H522 lung
  GI50: 15.3 µM
  TGI: 38.5 µM
NCI/ADR-RES ovarian
  GI50: > 100 µM
  TGI: > 100 µM
OVCAR-3 ovarian
  GI50: 17.4 µM
  TGI: 35.5 µM
OVCAR-4 ovarian
  GI50: 11.1 µM
  TGI: 33 µM
OVCAR-5 ovarian
  GI50: 18.3 µM
  TGI: 45.4 µM
OVCAR-8 ovarian
  GI50: 9.79 µM
  TGI: 27.5 µM
PC-3 prostate
  GI50: 14.5 µM
  TGI: 36.3 µM
RPMI-8226 leukemia
  GI50: 58 µM
  TGI: > 100 µM
RXF 393 renal
  GI50: 13.6 µM
  TGI: 32.5 µM
SF-268 CNS
  GI50: 14.3 µM
  TGI: 34.3 µM
SF-295 CNS
  GI50: 18.1 µM
  TGI: 39.8 µM
SF-539 CNS
  GI50: 14.7 µM
  TGI: 28.2 µM
SK-MEL-2 melanoma
  GI50: 16.4 µM
  TGI: 33.4 µM
SK-MEL-28 melanoma
  GI50: 16.6 µM
  TGI: 30.7 µM
SK-MEL-5 melanoma
  GI50: 16.9 µM
  TGI: 36.5 µM
SK-OV-3 ovarian
  GI50: 19.6 µM
  TGI: 44 µM
SN12C renal
  GI50: 16.4 µM
  TGI: 31.7 µM
SNB-19 CNS
  GI50: 16.6 µM
  TGI: 35.4 µM
SNB-75 CNS
  GI50: 10.7 µM
  TGI: 27.3 µM
SR leukemia
  GI50: 22.9 µM
  TGI: > 100 µM
SW-620 colon
  GI50: 15.2 µM
  TGI: 43.3 µM
T-47D breast
  GI50: 15.4 µM
  TGI: 31.2 µM
TK-10 renal
  GI50: 46.2 µM
  TGI: > 100 µM
U251 CNS
  GI50: 15.7 µM
  TGI: 37.6 µM
UACC-257 melanoma
  GI50: 19.5 µM
  TGI: 41.5 µM
UACC-62 melanoma
  GI50: 16.3 µM
  TGI: 30.8 µM
UO-31 renal
  GI50: > 100 µM
  TGI: > 100 µM
